This note sets out measurements from ChEMBL document CHEMBL1201862, “PubChem BioAssay data set” (2004).

Among the test systems are OVCAR-8; COLO 205; BT-549; NCI-H522; DU-145; CAKI-1; OVCAR-5; SW-620; SN12C; A498; HCT-116; MDA-MB-435; UACC-62; MDA-MB-231; HT-29; SK-MEL-28; A549; PC-3; T47D; Hs-578T.
Experiment in all cases: inhibition of tumour cell growth, NCI panel, 48 h

Molecules are shown by their SMILES.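 Values below derive from 48-hour exposures of cells grown in 96-well plates, with endpoints linearly interpolated between the two concentrations bracketing the appropriate inhibition level. GI50 is the concentration that inhibits growth by half.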 Active and inactive are the calls of the source. No stated cut-off is given here; in the data, active = GI50 up to about 1.1 µM and inactive = higher. Where a SMILES comes first, the peptide text is derived from it. The star is where a group is joined. Cbz = O=C(OCc1ccccc1)*; Boc = CC(C)(C)OC(=O)*; Bn = c1ccc(C*)cc1

For the molecule `CN(C)CCCNc1ncnc2c1ncn2C1OC(CO)C(O)C1O` (stereo not given), the GI50 with OVCAR-8 is > 100 µM (inactive); with COLO 205 it was > 100 µM (inactive); in the assay with BT-549, 92.7 µM (inactive); with NCI-H522, > 100 µM (inactive); in the assay with DU-145 it was > 100 µM (inactive); with CAKI-1, > 100 µM (inactive). In addition, the GI50 in the assay on OVCAR-5, in the assay with SW-620, in the assay on SN12C, in the assay with A498, in the assay with HCT-116 and in the assay with MDA-MB-435 was > 100 µM (inactive) each time. Besides, the GI50 in the assay on UACC-62, with MDA-MB-231, with HT-29, with SK-MEL-28, in the assay on A549 and in the assay on PC-3 was > 100 µM (inactive) each time. Moreover, in the assay on T47D, the GI50 is > 100 µM (inactive).
For the molecule `NS(=O)(=O)c1ccc(CNc2nc(-c3cccs3)nc3ccc(I)cc23)cc1`, the GI50 was 18.4 µM (inactive) in the assay on OVCAR-8; 16.1 µM (inactive) with COLO 205; 12.7 µM (inactive) in the assay with BT-549; 14.7 µM (inactive) with NCI-H522; 14.9 µM (inactive) in the assay on DU-145; 6.15 µM (inactive) with CAKI-1. The GI50 in the assay on OVCAR-5 is 19.2 µM (inactive); in the assay on SW-620, 31.5 µM (inactive); with SN12C, 22.9 µM (inactive); in the assay with HCT-116, 14.9 µM (inactive); with MDA-MB-435, 14.6 µM (inactive); with UACC-62 it was 16.5 µM (inactive). The GI50 in the assay with HT-29 was 19.4 µM (inactive); in the assay with SK-MEL-28, 21.3 µM (inactive); in the assay with A549, 12.5 µM (inactive); in the assay on PC-3, 19.4 µM (inactive); with T47D, 0.222 µM (active).
As to `N#Cc1c(-c2ccccc2)nc(-c2ccccc2)sc1=S`, the GI50 in the assay on OVCAR-8, in the assay on COLO 205, with BT-549, in the assay with DU-145, with CAKI-1 and in the assay with OVCAR-5 was > 100 µM (inactive) throughout. Also, the GI50 with SW-620, with SN12C, with A498, with HCT-116, with MDA-MB-435 and with UACC-62 was > 100 µM (inactive) each time. Also, the GI50 in the assay on MDA-MB-231, with HT-29, in the assay with SK-MEL-28, with A549, with Hs-578T and in the assay with T47D was > 100 µM (inactive) in each case.
Take `COc1cc(/C=C2\C(=O)N(c3ccccc3Cl)C(c3ccccc3)S2(=O)=O)cc(OC)c1OC` (stereo not given): the GI50 was 45.8 µM (inactive) in the assay on OVCAR-8; 36.4 µM (inactive) with COLO 205; 36 µM (inactive) with BT-549; 20.9 µM (inactive) in the assay on NCI-H522; 59 µM (inactive) with DU-145; 59.7 µM (inactive) in the assay on CAKI-1. Further, the GI50 is 20.9 µM (inactive) in the assay with OVCAR-5; 37.3 µM (inactive) in the assay on SW-620; 20.8 µM (inactive) in the assay on SN12C; > 100 µM (inactive) in the assay on A498; 22.9 µM (inactive) with HCT-116; 33.3 µM (inactive) in the assay on MDA-MB-435. Moreover, the GI50 was 31.9 µM (inactive) in the assay with UACC-62; 49.9 µM (inactive) in the assay on MDA-MB-231; 16.3 µM (inactive) in the assay with HT-29; 39 µM (inactive) in the assay on SK-MEL-28; 36.8 µM (inactive) with A549; 46.5 µM (inactive) in the assay on Hs-578T. Further, the GI50 with T47D is 32.8 µM (inactive).
In the case of `CN1CCCCCC(=N\O)/C(=N/O)CCCCC1`, the GI50 with OVCAR-8 is > 100 µM (inactive); with BT-549, 80.7 µM (inactive); in the assay on NCI-H522, > 100 µM (inactive); in the assay with DU-145, > 100 µM (inactive); in the assay on CAKI-1 it was > 100 µM (inactive); with OVCAR-5, > 100 µM (inactive). Moreover, the GI50 with SW-620, in the assay on SN12C, in the assay on A498, in the assay on HCT-116, with MDA-MB-435 and in the assay with MDA-MB-231 was > 100 µM (inactive) each time. Moreover, the GI50 in the assay on HT-29, in the assay with SK-MEL-28, in the assay with A549, in the assay with PC-3 and in the assay on Hs-578T was > 100 µM (inactive) throughout.
As for `COc1cc2c(cc1OCCCN1CCOCC1)N=C[C@@H]1CCCN1C2=O`, the GI50 in the assay with OVCAR-8 is 24.7 µM (inactive); in the assay with COLO 205, 1.87 µM (inactive); with BT-549, 6.53 µM (inactive); with NCI-H522, 1.25 µM (inactive); in the assay with DU-145, 21.7 µM (inactive); in the assay with CAKI-1, 5.82 µM (inactive). The GI50 with OVCAR-5 is 15.5 µM (inactive); in the assay on SW-620 it was 3.33 µM (inactive); with SN12C, 23.6 µM (inactive); in the assay on A498 it was 10.1 µM (inactive); in the assay on HCT-116, 12.8 µM (inactive); in the assay with MDA-MB-435 it was 11.8 µM (inactive). The GI50 was 12.8 µM (inactive) with UACC-62; 11 µM (inactive) in the assay on MDA-MB-231; 8.79 µM (inactive) in the assay on HT-29; 12.6 µM (inactive) in the assay on SK-MEL-28; 35.7 µM (inactive) in the assay with A549; 18.6 µM (inactive) in the assay with PC-3. In the assay with Hs-578T, the GI50 was 16.9 µM (inactive).
Turning to `CC(C)(C)OC(=O)NC(Cc1ccc(OCc2ccccc2)cc1)C(=O)NC(CCCCNC(=O)OCc1ccccc1)C(=O)O` (stereo not given) (Boc-Tyr(Bn)-Lys(Cbz)-OH; configuration not given here), the GI50 is 35.3 µM (inactive) in the assay on OVCAR-8; 29.5 µM (inactive) in the assay with COLO 205; 17.3 µM (inactive) in the assay with BT-549; > 100 µM (inactive) in the assay on OVCAR-5; 49 µM (inactive) in the assay with SW-620; 30.5 µM (inactive) in the assay with SN12C. Also, the GI50 is 31.3 µM (inactive) in the assay on HCT-116; 20.5 µM (inactive) in the assay with UACC-62; > 100 µM (inactive) with MDA-MB-231; 62.1 µM (inactive) in the assay on HT-29; 17.4 µM (inactive) in the assay with SK-MEL-28; > 100 µM (inactive) in the assay on A549. The GI50 was 68.1 µM (inactive) with PC-3 and 69.3 µM (inactive) in the assay with Hs-578T.
In the case of `O=C(CCCC(=O)N1CC(CCl)c2ccc([N+](=O)[O-])cc21)N1CC(CCl)c2ccc([N+](=O)[O-])cc21` (stereo not given), the GI50 was > 100 µM (inactive) with COLO 205; > 100 µM (inactive) with BT-549; 71.4 µM (inactive) with NCI-H522; 81.3 µM (inactive) with DU-145; > 100 µM (inactive) in the assay with CAKI-1; > 100 µM (inactive) in the assay on OVCAR-5. The GI50 with SW-620 is > 100 µM (inactive); in the assay on SN12C, > 100 µM (inactive); in the assay on A498 it was 34 µM (inactive); with HCT-116, > 100 µM (inactive); with MDA-MB-435 it was > 100 µM (inactive); in the assay with UACC-62, > 100 µM (inactive). Further, the GI50 in the assay with MDA-MB-231 is > 100 µM (inactive); in the assay on HT-29, > 100 µM (inactive); in the assay on SK-MEL-28, > 100 µM (inactive); in the assay with A549, 33.3 µM (inactive); with PC-3, > 100 µM (inactive); with T47D it was > 100 µM (inactive).
Consider `Cn1nc(S(N)(=O)=O)s/c1=N/C(N)=S`, for which the GI50 in the assay on OVCAR-8, in the assay with COLO 205, in the assay with BT-549, with NCI-H522, with DU-145 and with CAKI-1 was > 100 µM (inactive) in each case. For the same molecule, the GI50 in the assay on OVCAR-5, with SW-620, in the assay with SN12C, with A498, in the assay on HCT-116 and in the assay with MDA-MB-435 was > 100 µM (inactive) each time. Further, the GI50 in the assay on UACC-62, in the assay with MDA-MB-231, in the assay on HT-29, in the assay with SK-MEL-28, in the assay on A549 and in the assay with Hs-578T was > 100 µM (inactive) in each case. Also, the GI50 in the assay with T47D is > 100 µM (inactive).
As to `CC(C)[C@@H]1CC[C@@H](C)C[C@H]1OC(=O)/C=C1/C2C=CC(O2)C1C(=O)O[C@@H]1C[C@H](C)CC[C@H]1C(C)C` (stereo not given in full), the GI50 was > 100 µM (inactive) with OVCAR-8; > 100 µM (inactive) in the assay with COLO 205; 41.8 µM (inactive) in the assay with NCI-H522; > 100 µM (inactive) with DU-145; > 100 µM (inactive) with CAKI-1; > 100 µM (inactive) in the assay with OVCAR-5. Moreover, the GI50 in the assay with SW-620, in the assay with SN12C, in the assay on A498, in the assay with HCT-116, with MDA-MB-435 and in the assay with UACC-62 was > 100 µM (inactive) throughout. Further, the GI50 was > 100 µM (inactive) in the assay with MDA-MB-231; 48.5 µM (inactive) in the assay on HT-29; > 100 µM (inactive) in the assay on SK-MEL-28; > 100 µM (inactive) in the assay on A549; 56 µM (inactive) in the assay on PC-3; > 100 µM (inactive) with Hs-578T. For the same molecule, the GI50 in the assay with T47D was 45.3 µM (inactive).
As to `Cc1nc2c(O)cccc2c(=O)[nH]1`, the GI50 in the assay on OVCAR-8 is 437 µM (inactive); with BT-549, 174 µM (inactive); in the assay on NCI-H522, 356 µM (inactive); with CAKI-1, 256 µM (inactive); in the assay with OVCAR-5, 382 µM (inactive); in the assay with SW-620 it was > 1000 µM (inactive). Moreover, the GI50 was 532 µM (inactive) with SN12C; 419 µM (inactive) in the assay on A498; 341 µM (inactive) with HCT-116; 883 µM (inactive) in the assay on MDA-MB-435; 232 µM (inactive) with UACC-62; 345 µM (inactive) in the assay on HT-29. The GI50 in the assay with SK-MEL-28 is > 1000 µM (inactive); in the assay on A549, 360 µM (inactive); in the assay on PC-3 it was 451 µM (inactive); with Hs-578T, 573 µM (inactive).
